Test results: patent publication US5430062A, “Stilbene derivatives as anticancer agents” (priority 1993, dated 1995)
Structures can show the parent of a compound that is named as a salt. Where two headings read alike, the source gives them in different places.

Experiments:
[1] = system: COLO 205 colon cancer; experiment: Cytotoxicity, COLO 205; conditions: read-out: cytotoxicity GI50, COLO 205, 50% growth inhibition, average of two determinations, 8640 min
[2] = system: tubulin; experiment: Inhibition of tubulin polymerization (turbidimetry); format: biochemical, bovine
[3] = system: HL-60 (TB) leukemia; experiment: Cytotoxicity, HL-60(TB) leukemia; conditions: read-out: cytotoxicity GI50, HL-60(TB), 50% growth inhibition, average of two determinations, 8640 min
[4] = system: M14 melanoma; experiment: Cytotoxicity, M14
[5] = system: SF-295 CNS cancer; experiment: Cytotoxicity, SF-295; conditions: read-out: cytotoxicity GI50, SF-295, 50% growth inhibition, average of two determinations, 8640 min
[6] = system: OVCAR-3 ovarian cancer; experiment: Cytotoxicity, OVCAR-3
[7] = system: CAKI-1 renal cancer; experiment: Cytotoxicity, CAKI-1
[8] = system: DMS 273 small cell lung cancer; experiment: Cytotoxicity, DMS 273; conditions: read-out: cytotoxicity GI50, DMS 273, 50% growth inhibition, average of two determinations, 8640 min
[9] = system: A-549 lung carcinoma; experiment: MTT cytotoxicity assay, A-549; conditions: Homo sapiens, A549, […], read-out: Cytotoxicity ED50, A-549
[10] = system: tubulin; conditions: cited from earlier work
[11] = system: MLM melanoma; experiment: MTT cytotoxicity assay, MLM; conditions: […], read-out: Cytotoxicity ED50, MLM
[12] = system: HT-29 colon adenocarcinoma; experiment: MTT cytotoxicity assay, HT-29; conditions: Homo sapiens, HT-29, […], read-out: Cytotoxicity ED50, HT-29
[13] = system: MCF-7 breast carcinoma; experiment: MTT cytotoxicity assay, MCF-7; conditions: Homo sapiens, MCF7, […], read-out: Cytotoxicity ED50, MCF-7
[14] = system: tubulin; experiment: Inhibition of [3H]colchicine binding to tubulin (DEAE-filter); set-up: species or system bovine
[15] = Stability in DMSO solution at room temperature (NMR); format: physicochemical; conditions: protected from light, read-out: formation of the cis isomer (1a)
Experimental: The cytotoxic compounds gave reproducible results in the tubulin polymerization assay with the exception of the trans stilbenes 1b and 6n. […] The cytotoxic properties of these two agents may similarly result from chemical changes in solution. […] The ratio of 6n:5n was 1:1 after 24 hours of the dissolution of pure 6n in DMSO at room temperature.

[16] = Table X, different glutamate preparation (1M monosodium glutamate and GTP), read-out: inhibn of tubulin polymn IC50 (±SD)
[17] = read-out: cytotoxicity GI50, M14; 50% growth inhibition; average of two determinations; 8640 min
[18] = read-out: cytotoxicity GI50, OVCAR-3; 50% growth inhibition; average of two determinations; 8640 min
[19] = read-out: cytotoxicity GI50, CAKI-1; 50% growth inhibition; average of two determinations; 8640 min
[20] = benzylanilines, Table X series, read-out: tubulin polymerization IC50
[21] = read-out: cytotoxicity GI50, M14, 50% growth inhibition, average of two determinations, 8640 min
[22] = read-out: cytotoxicity GI50, OVCAR-3, 50% growth inhibition, average of two determinations, 8640 min
[23] = Table X, different glutamate preparation (1M monosodium glutamate and GTP), Hydrochloride, read-out: inhibn of tubulin polymn IC50 (±SD)
[24] = read-out: cytotoxicity GI50, OVCAR-3, 50% growth inhibition, average of two determinations, 8640 min, Hydrochloride
[25] = read-out: cytotoxicity GI50, CAKI-1, 50% growth inhibition, average of two determinations, 8640 min, Hydrochloride
[26] = read-out: cytotoxicity GI50, M14, 50% growth inhibition, average of two determinations, 8640 min, Hydrochloride

SMILES	GI50 [1]	IC50 [2, 16]	GI50 [3]	GI50 [4, 17]	GI50 [5]	GI50 [7, 19]	GI50 [8]	IC50 [2, 20]	GI50 [4, 21]	GI50 [6, 22]	GI50 ([1]; Hydrochloride)	IC50 [2, 23]	GI50 ([3]; Hydrochloride)	GI50 ([5]; Hydrochloride)	GI50 [6, 24]	GI50 [7, 25]	GI50 ([8]; Hydrochloride)	further results
COc1cc(C=Nc2ccc(C(C)C)cc2)cc(OC)c1OC [108f, 4-Isopropyl-N-(3,4,5-trimethoxybenzylidene)aniline]	> 100000 nM	> 40000 nM	> 100000 nM	> 100000 nM	> 100000 nM	> 100000 nM	52500 nM	–	–	–	–	–	–	–	–	–	–	GI50 [6, 18]: > 100000 nM
CCCc1ccc(N=Cc2cc(OC)c(OC)c(OC)c2)cc1 [108g, 4-n-Propyl-N-(3,4,5-trimethoxybenzylidene)aniline]	> 100000 nM	> 40000 nM	22600 nM	> 100000 nM	> 100000 nM	> 100000 nM	> 100000 nM	–	–	–	–	–	–	–	–	–	–	GI50 [6, 18]: > 100000 nM
CCc1ccc(NCc2cc(OC)c(OC)c(OC)c2)cc1 [109b, 4-Ethyl-N-(3,4,5-trimethoxybenzyl)aniline]	344 nM	3000 nM	168 nM	–	266 nM	354 nM	135 nM	3000 nM	315 nM	283 nM	–	–	–	–	–	–	–	–
CCOc1ccc(NCc2cc(OC)c(OC)c(OC)c2)cc1 [109d, 4-Ethoxy-N-(3,4,5-trimethoxybenzyl)aniline]	432 nM	12000 nM	296 nM	–	274 nM	2040 nM	296 nM	–	403 nM	340 nM	–	–	–	–	–	–	–	–
COc1cc(CNc2ccc(SC)cc2)cc(OC)c1OC [109e, 4-Methylthio-N-(3,4,5-trimethoxybenzyl)aniline]	3880 nM	> 40000 nM	3700 nM	–	7280 nM	–	3090 nM	–	5260 nM	5930 nM	–	–	–	–	–	–	–	GI50 ([7]; read-out: cytotoxicity GI50, CAKI-1, 50% growth inhibition, average of two determinations, 8640 min): 32000 nM
COc1ccc(NCc2cc(OC)c(OC)c(OC)c2)cc1 [110c, 4-Methoxy-N-(3,4,5-trimethoxybenzyl)aniline Hydrochloride]	–	–	–	2380 nM	–	–	–	8900 nM	–	–	1660 nM	8900 nM	834 nM	2320 nM	1960 nM	2500 nM	534 nM	–
CCOc1ccc(NCc2cc(OC)c(OC)c(OC)c2)cc1 [110d, 4-Ethoxy-N-(3,4,5-trimethoxybenzyl)aniline Hydrochloride]	–	–	–	–	–	–	–	11000 nM	–	–	538 nM	11000 nM	448 nM	418 nM	464 nM	1050 nM	961 nM	GI50 [4, 26]: 532 nM
COc1cc(CNc2ccc(SC)cc2)cc(OC)c1OC [110e, 4-Methylthio-N-(3,4,5-trimethoxybenzyl)aniline Hydrochloride]	–	–	–	–	–	–	–	16000 nM	–	–	3600 nM	16000 nM	3290 nM	3410 nM	4850 nM	16300 nM	4910 nM	GI50 [4, 26]: 4840 nM
COc1ccc(/C=C\c2cc(OC)c(OC)c(OC)c2)cc1O [compound 1a, reference compound]	–	–	–	–	–	–	–	–	–	–	–	–	–	–	–	–	–	IC50 [9]: 0.0012 nM; competitive inhibition of colchicine binding [10]: competitively inhibit the binding of radiolabeled colchicine to tubulin; IC50 [11]: 0.014 nM; IC50 [12]: 0.012 nM; IC50 [13]: 0.0038 nM; inhibition of colchicine binding (in words) [14]: nearly total inhibition of colchicine binding
COc1ccc(/C=C/c2cc(OC)c(OC)c(OC)c2)cc1O [compound 1b, reference compound]	–	–	–	–	–	–	–	–	–	–	–	–	–	–	–	–	–	degraded at […] ([15]; four weeks): ~10%; degraded at 336 h ([15]; two weeks): ~3%
